From ChEMBL document CHEMBL1128092, “Potent, orally bioavailable HIV-1 protease inhibitors containing noncoded D-amino acids” (Bioorg Med Chem Lett, 1995)

Assays:
CCRF-CEM [1] = assay: (§1) Antiviral activity to inhibit viral replication of HIV-1 infected CEM cells; format: functional; conditions: Homo sapiens
[2] = target: Human immunodeficiency virus type 1 protease (Human immunodeficiency virus 1, UniProt Q72874); assay: Inhibitory activity against HIV-1 protease
CCRF-CEM [3] = assay: as §1; format: functional, cell-based; conditions: Homo sapiens

Row | Structure (SMILES) | IC95 (CCRF-CEM [1]) | IC50 [2] | IC50 (CCRF-CEM [3])
1 | CC(C)(C)NC(=O)[C@@H]1C[C@@H]2CCCC[C@@H]2CN1C[C@@H](O)[C@H](Cc1ccccc1)NC(=O)[C@@H](C[S+]([O-])c1ccc2ccccc2c1)NS(C)(=O)=O (some centres undefined) | 8.2 nM | 0.4 nM | 3.8 nM
2 | CC(C)CN(C[C@@H](O)[C@H](Cc1ccccc1)NC(=O)[C@@H](CS(=O)(=O)c1ccc(F)cc1)NS(C)(=O)=O)C(=O)NC(C)(C)C | 21000 nM | 10 nM | 10000 nM
3 | CC(C)(C)NC(=O)[C@@H]1C[C@@H]2SCC[C@@H]2CN1C[C@@H](O)[C@H](Cc1ccccc1)NC(=O)[C@@H](CS(=O)(=O)c1cccc2cccnc12)NS(C)(=O)=O | 250 nM | 0.71 nM | 72 nM
4 | CC(=O)N[C@H](CS(=O)(=O)c1cccc2cccnc12)C(=O)N[C@@H](Cc1ccccc1)[C@H](O)CN1C[C@H]2CCS[C@H]2C[C@H]1C(=O)NC(C)(C)C | 300 nM | 0.42 nM | 140 nM
5 | CC(C)(C)NC(=O)[C@@H]1C[C@@H]2CCCC[C@@H]2CN1C[C@@H](O)[C@H](Cc1ccccc1)NC(=O)[C@@H](CS(=O)(=O)c1ccc2ccccc2c1)NS(C)(=O)=O | 10 nM | 0.5 nM | 3.2 nM
6 | CC(C)(C)NC(=O)[C@@H]1C[C@@H]2SCC[C@@H]2CN1C[C@@H](O)[C@H](Cc1ccccc1)NC(=O)[C@@H](CS(=O)(=O)c1ccc(F)cc1)NS(C)(=O)=O | 190 nM | 0.22 nM | 43 nM
7 | CC(=O)N[C@H](CS(=O)(=O)c1ccc(F)cc1)C(=O)N[C@@H](CSc1ccccc1)[C@H](O)CN1C[C@H]2CCS[C@H]2C[C@H]1C(=O)NC(C)(C)C | 180 nM | 1.8 nM | 57 nM
8 | CC(=O)N[C@H](CS(=O)(=O)c1ccc2ccccc2c1)C(=O)N[C@@H](Cc1ccccc1)[C@H](O)CN1C[C@H]2CCS[C@H]2C[C@H]1C(=O)NC(C)(C)C | 23 nM | 0.5 nM | 1.9 nM
9 | CC(C)(C)NC(=O)[C@@H]1C[C@@H]2SCC[C@@H]2CN1C[C@@H](O)[C@H](CSc1ccccc1)NC(=O)[C@@H](CS(=O)(=O)c1ccc(F)cc1)NC(=O)C(F)(F)F | 840 nM | 10 nM | 180 nM
10 | CC(C)(C)NC(=O)[C@@H]1C[C@@H]2SCC[C@@H]2CN1C[C@@H](O)[C@H](Cc1ccccc1)NC(=O)[C@@H](CS(=O)(=O)c1cccc2cccnc12)NC(=O)C(F)(F)F | 62 nM | 0.21 nM | 18 nM
11 | CC(=O)N[C@H](CS(=O)(=O)c1ccc2ccccc2c1)C(=O)N[C@@H](Cc1ccccc1)[C@H](O)CN1C[C@H]2CCCC[C@H]2C[C@H]1C(=O)NC(C)(C)C | 22 nM | 1.6 nM | 9.5 nM
12 | CC(C)CN(C[C@@H](O)[C@H](Cc1ccccc1)NC(=O)[C@@H](CSc1ccc(F)cc1)NS(C)(=O)=O)C(=O)NC(C)(C)C | 36000 nM | 85 nM | 17000 nM
13 | CC(C)(C)NC(=O)[C@@H]1C[C@@H]2CCCC[C@@H]2CN1C[C@@H](O)[C@H](Cc1ccccc1)NC(=O)[C@@H](CSc1ccc2ccccc2c1)NS(C)(=O)=O | 1900 nM | 5.1 nM | 71 nM
14 | CC(=O)N[C@H](CSCc1ccccc1)C(=O)N[C@@H](Cc1ccccc1)[C@H](O)CN1C[C@H]2CCCC[C@H]2C[C@H]1C(=O)NC(C)(C)C | 305 nM | 6 nM | 77 nM
15 | CC(C)CN(C[C@@H](O)[C@H](Cc1ccccc1)NC(=O)[C@@H](CSc1ccc2ccccc2c1)NS(C)(=O)=O)C(=O)NC(C)(C)C | 9900 nM | 50 nM | 4700 nM
16 | CC(C)(C)NC(=O)[C@@H]1C[C@@H]2SCC[C@@H]2CN1C[C@@H](O)[C@H](Cc1ccccc1)NC(=O)[C@@H](CS(=O)(=O)c1ccc2ccccc2c1)NC(=O)C(F)(F)F | 32 nM | < 0.2 nM | 4.6 nM
17 | CC(C)(C)NC(=O)[C@@H]1C[C@@H]2SCC[C@@H]2CN1C[C@@H](O)[C@H](Cc1ccccc1)NC(=O)[C@@H](CS(=O)(=O)c1ccc2ccccc2c1)NS(C)(=O)=O | 85 nM | < 0.2 nM | 27 nM
18 | CC(C)(C)NC(=O)[C@@H]1C[C@@H]2CCCC[C@@H]2CN1C[C@@H](O)[C@H](Cc1ccccc1)NC(=O)[C@@H](C[S+]([O-])c1ccc(F)cc1)NS(C)(=O)=O (some centres undefined) | 31 nM | 0.6 nM | 9.1 nM
19 | CC(=O)N[C@H](CS(=O)(=O)c1cccc2cccnc12)C(=O)N[C@@H](Cc1ccccc1)[C@H](O)CN1C[C@H]2CCCC[C@H]2C[C@H]1C(=O)NC(C)(C)C | 64 nM | 1.7 nM | 1.9 nM
20 | CC(C)(C)NC(=O)[C@@H]1C[C@@H]2CCCC[C@@H]2CN1C[C@@H](O)[C@H](Cc1ccccc1)NC(=O)[C@@H](CSc1ccc(F)cc1)NS(C)(=O)=O | 550 nM | 24 nM | 150 nM
21 | CC(C)(C)NC(=O)[C@@H]1C[C@@H]2CCCC[C@@H]2CN1C[C@@H](O)[C@H](Cc1ccccc1)NC(=O)[C@@H](CS(=O)(=O)c1ccc(F)cc1)NS(C)(=O)=O | 54 nM | 2 nM | 17 nM
22 | CC(C)(C)NC(=O)[C@@H]1C[C@@H]2SCC[C@@H]2CN1C[C@@H](O)[C@H](Cc1ccccc1)NC(=O)[C@@H](CS(=O)(=O)c1ccc(F)cc1)NC(=O)C(F)(F)F | 58 nM | < 0.2 nM | 15 nM
23 | CC(=O)N[C@H](CS(=O)(=O)c1ccc(F)cc1)C(=O)N[C@@H](Cc1ccccc1)[C@H](O)CN1C[C@H]2CCS[C@H]2C[C@H]1C(=O)NC(C)(C)C | 730 nM |  | 70 nM
24 | CC(C)CN(C[C@@H](O)[C@H](Cc1ccccc1)NC(=O)[C@@H](C[S+]([O-])c1ccc2ccccc2c1)NS(C)(=O)=O)C(=O)NC(C)(C)C (some centres undefined) | 62 nM | 2.1 nM | 14 nM
25 | CC(C)(C)NC(=O)[C@@H]1C[C@@H]2SCC[C@@H]2CN1C[C@@H](O)[C@H](CSc1ccccc1)NC(=O)[C@@H](CS(=O)(=O)c1ccc2ccccc2c1)NC(=O)C(F)(F)F | 240 nM | 1.8 nM | 57 nM
